In US10449162B2, “Delivery of drug nanoparticles and methods of use thereof” (DFB Soria, LLC, priority 2015, dated 2019):

Tests used:
skin inflammation models = details: topical treatment; nonclinical evaluations; cited from earlier work
[1] = Solubility of paclitaxel in various solvents (HPLC); assay type: physicochemical
Protocol: For each solvent, about 2 g of the solvent was weighed into a clear glass vial.
Each vial was mixed with a stir bar on a magnetic stirrer for 2 hours at room temperature.
Each vial was then checked every 1-2 hours to see if the solution became clear.

CC(=O)O[C@H]1C(=O)[C@@]2(C)[C@H]([C@H](OC(=O)c3ccccc3)[C@]3(O)C[C@H](OC(=O)[C@H](O)[C@@H](NC(=O)c4ccccc4)c4ccccc4)C(C)=C1C3(C)C)[C@]1(OC(C)=O)CO[C@@H]1C[C@@H]2O [Paclitaxel, paclitaxel]
Effect in skin inflammation models (skin inflammation models): reduced inflammation, swelling, and erythema | Paclitaxel Solubility at RT ([1]; in Benzyl Alcohol, NF): 17.02% w/w | Paclitaxel Solubility at RT ([1]; in Diethylene Glycol Monoethyl Ether, NF (TRANSCUTOL P)): 33.10% w/w | Paclitaxel Solubility at RT ([1]; in Diisopropyl Adipate (CERAPHYL 230)): 3.51% w/w | Paclitaxel Solubility at RT ([1]; in Dimethyl Isosorbide): 38.22% w/w | Paclitaxel Solubility at RT ([1]; in Hexylene Glycol): 4.07% w/w | Paclitaxel Solubility at RT ([1]; in Isopropyl Myristate, NF): 0.048% w/w | Paclitaxel Solubility at RT ([1]; in Medium Chain Triglycerides, NF): 0.32% w/w | Paclitaxel Solubility at RT ([1]; in Mineral Oil, USP (heavy)): 0.3 ppm | Paclitaxel Solubility at RT ([1]; in Polyethylene Glycol 400, NF): 22.30% w/w | Paclitaxel Solubility at RT ([1]; in Propylene Carbonate): 4.74% w/w | Paclitaxel Solubility at RT ([1]; in Propylene Glycol, USP): 0.88% w/w | Paclitaxel Solubility at RT ([1]; in Purified Water, USP): <0.05 ppm | Paclitaxel Solubility at RT ([1]; in Purified Water, USP, listed as paclitaxel): less than 0.05 ppm | Paclitaxel Solubility at RT ([1]; in Super Refined Oleic Acid, NF): 0.041% w/w | Paclitaxel Solubility at RT ([1]; in Super Refined Oleyl Alcohol, NF): 0.38% w/w
